Assay results published in article PMC10246557, “Kinetic and inhibition studies on human Jumonji-C (JmjC) domain-containing protein 5” (RSC Chemical Biology, 2023).
Several values for one entry are separate records, joined by “and”; a condition that tells them apart may be missing. Equal entries are not always repeated. Where two headings read alike, the source gives them in different places.

Key:
[1] = biological target: T1, human KDM4E (Homo sapiens, UniProt B2RXH2); assay: KDM4E SPE-MS inhibition assay; type: biochemical; conditions: KDM4E 0.15 μM, peptide 10.0 μM, LAA 100 μM, FAS 10 μM, 2OG 10 μM
T1 sequence (B2RXH2 1-506): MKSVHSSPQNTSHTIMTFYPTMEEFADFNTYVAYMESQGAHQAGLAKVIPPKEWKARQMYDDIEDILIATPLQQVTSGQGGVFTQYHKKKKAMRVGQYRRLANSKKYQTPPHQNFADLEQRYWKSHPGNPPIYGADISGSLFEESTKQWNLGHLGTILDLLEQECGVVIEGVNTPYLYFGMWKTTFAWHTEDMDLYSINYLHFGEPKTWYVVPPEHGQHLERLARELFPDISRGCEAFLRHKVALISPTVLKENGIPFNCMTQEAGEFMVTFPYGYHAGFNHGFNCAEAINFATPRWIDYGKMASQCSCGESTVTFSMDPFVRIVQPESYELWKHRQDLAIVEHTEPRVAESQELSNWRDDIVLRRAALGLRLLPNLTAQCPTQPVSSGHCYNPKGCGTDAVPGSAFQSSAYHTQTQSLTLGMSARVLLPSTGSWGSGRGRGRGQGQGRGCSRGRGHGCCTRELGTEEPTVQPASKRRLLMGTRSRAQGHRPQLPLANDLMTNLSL
Procedure: KDM4E turnover and inhibition assays were performed as reported using recombinant human KDM4E and a histone 3 K9(me3) derivative (i.e. […](me3)STGGIA)[41] as substrate.[95] […]

[2] = tested on: human FIH; conditions: absence of 2OG, FIH 0.15 μM, 2OG derivative 330 μM, Fe(II) 50 μM, HIF-1α788–822 5.0 μM, cited from earlier work
[3] = biological target: T2, human JMJD5 (Homo sapiens, UniProt Q8N371); assay: SPE-MS JMJD5 turnover and kinetic assay (RPS6_128–148 hydroxylation); type: biochemical; conditions: for JMJD5 (%): RPS6_128–148 hydroxylation with the compound as cosubstrate: absence of 2OG, JMJD5 0.15 μM, 2OG derivative 400 μM, Fe(II) 20 μM, RPS6_128–148 2.0 μM
T2 construct: made in house; host or cells: Escherichia coli BL21(DE3)
T2 sequence (Q8N371 whole entry): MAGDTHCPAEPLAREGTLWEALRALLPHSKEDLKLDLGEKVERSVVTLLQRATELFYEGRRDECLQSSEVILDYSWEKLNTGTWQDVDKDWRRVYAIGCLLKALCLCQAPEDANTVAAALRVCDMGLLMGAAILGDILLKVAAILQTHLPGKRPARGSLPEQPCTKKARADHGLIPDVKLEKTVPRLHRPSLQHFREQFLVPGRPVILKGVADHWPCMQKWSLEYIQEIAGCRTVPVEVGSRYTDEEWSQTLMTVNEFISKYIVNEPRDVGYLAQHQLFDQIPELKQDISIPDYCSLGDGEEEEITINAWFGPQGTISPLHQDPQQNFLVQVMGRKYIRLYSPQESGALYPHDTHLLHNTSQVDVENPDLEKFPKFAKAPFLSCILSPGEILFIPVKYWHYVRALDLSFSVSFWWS
Procedure: JMJD5 turnover assays for time course and kinetic experiments were performed in 96-well polypropylene assay plates (Greiner) with either […] total reaction volume using the concentrations given in the manuscript or ESI, ^† and JMJD5-catalysed substrate hydroxylation was directly monitored using SPE-MS. […] Assay samples were aspirated under vacuum for 0.6 s and loaded onto a C4 solid phase extraction (SPE) cartridge. After loading, the C4 SPE cartridge was washed with 0.1%v/v aqueous formic acid to remove non-volatile buffer salts (5.5 s, 1.5 mL min^−1). The peptide was eluted from the SPE cartridge with 0.1%v/v aqueous formic acid in 80/20v/v acetonitrile/water into the mass spectrometer (5.5 s, 1.5 mL min^−1) and the SPE cartridge re-equilibrated with 0.1%v/v aqueous formic acid (0.5 s, 1.5 mL min^−1). The mass spectrometer was operated using the MassHunter Workstation B.08.00 software (Agilent), the mass spectrometer parameters were: capillary voltage (4000 V), nozzle voltage (1000 V), fragmentor voltage (365 V), gas temperature (280 °C), gas flow (13 L min^−1), sheath gas temperature (350 °C), sheath gas flow (12 L min^−1). […] Data were exported into Microsoft Excel and used to calculate the % conversion of the hydroxylation reaction using the equation: % conversion = 100 × (integral product peptide)/(integral substrate peptide + integral product peptide).
parameters (continues on the following two pages). Maximum velocities (vapp ) and Michaelis constants (Kapp)
of JMJD5 were determined in independent triplicates, monitoring the JMJD5-catalyzed hydroxylation of the
SPE-MS, as described (Experimental Section).
20 °C). Measurement times were normalized to the first sample injection analyzed after the addition of JMJD5 to
shown as the mean of three independent runs (n = 3; mean ± standard deviation, SD).
hexahydrate (20 μM, (NH4)2Fe(SO4)2·6H2O); and (b) hydroxylation rates used to determine kinetic parameters of
(1 picture or pasted object on this page, not shown here)
Maximum velocities (vapp ) and
Michaelis constants (Kapp) of JMJD5 were determined in independent triplicates for (1R)-3-
(carboxycarbonyl)cyclopentane-1-carboxylic acid (14), monitoring the JMJD5-catalyzed hydroxylation of the
as described (Experimental Section).
pH 7.5, 20 °C). Measurement times were normalized to the first sample injection analyzed after the addition of
(§1) Data are shown as the mean of three independent runs (n = 3; mean ± SD).
to determine kinetic parameters of JMJD5 for 14.

[4] = tested on: human AspH; conditions: absence of 2OG, AspH 0.1 μM, 2OG derivative 330 μM, Fe(II) 50 μM, hFX-CP101–119 2.0 μM, cited from earlier work
[5] = biological target: T2, human JMJD5; assay: SPE-MS JMJD5 inhibition assay; type: biochemical; conditions: JMJD5 0.15 μM, 2OG 2.0 μM, Fe(II) 2.0 μM, LAA 100 μM, RPS6_128–148 2.0 μM; read-out: IC50 JMJD5
Procedure: Solutions of the small-molecules (100% DMSO) were dry dispensed across 384 well polypropylene V-bottom assay microplates (Greiner) in an approximately three-fold and 11-point dilution series (100 μM inhibitor top concentration; the final DMSO assay concentration was kept constant at 0.5%v/v) using an ECHO 550 acoustic dispenser (Labcyte). […] Each reaction was performed in technical duplicates in adjacent wells of the assay plates; additionally, assays were performed in two independent duplicates on different days using different inhibitor solutions.
The Enzyme Mixture (25 μL per well), containing 0.3 μM His6-thioredoxin-tagged JMJD5 in buffer (50 mM MOPS, pH 7.5), was dispensed across the inhibitor-containing 384-well plates with a multidrop dispenser (ThermoFischer Scientific) at 20 °C under an ambient atmosphere. The plates were subsequently centrifuged (1000 rpm, 5 s) and incubated for 15 min at 20 °C. […] The plates were centrifuged (1000 rpm, 5 s) and, after incubating for 30 min, the enzyme reaction was stopped by the addition of 10%v/v aqueous formic acid (5 μL per well). The plates were then centrifuged (1000 rpm, 30 s) and analyzed by MS.
Z′-Factors were calculated according to the cited literature using Microsoft Excel.[61]

[6] = biological target: T1, human KDM4E; assay: KDM4E SPE-MS turnover and kinetic assay (H3 K9(me3) peptide demethylation); type: biochemical; conditions: absence of 2OG, KDM4E 0.15 μM, 2OG derivative 330 μM, Fe(II) 50 μM, ARTAQTARK(me3)STGGIA 10.0 μM
Procedure: KDM4E turnover and inhibition assays were performed as reported using recombinant human KDM4E and a histone 3 K9(me3) derivative (i.e. […](me3)STGGIA)[41] as substrate.[95]
Supplementary Figure S3. Rates of KDM4E-catalyzed Nε-trimethyl lysine demethylations of a histone 3- […]
Maximum velocities (vapp ) and Michaelis […]
catalyzed Nε-trimethyl lysine demethylation of the histone 3 K9(me3)-derived peptide […]
(me3)STGGIA2 by SPE-MS as described;3 note that mono-, di-, and tri-demethylated product […]
buffer (50 mM MES, pH 7.0, 20 °C). Measurement times were normalized to the first sample injection analyzed […]
as §1
(a) Time course of the KDM4E-catalyzed Nε-trimethyl lysine demethylation reaction of the […]

[7] = tested on: human FIH; set-up: method as in ref 10 (ESI); conditions: FIH 0.15 μM, HIF-1α788-822 5.0 μM, 2OG 10 μM; ref 10 (ESI); cited from earlier work
[8] = tested on: human AspH; set-up: method as in ref 9 (ESI); conditions: AspH 0.05 μM, hFX-CP101-119 1.0 μM, 2OG 3.0 μM; ref 9 (ESI); cited from earlier work

Compound | IC50 [1] | FIH (%): substrate hydroxylation with the compound as cosubstrate [2] | JMJD5 (%): RPS6_128–148 hydroxylation with the compound as cosubstrate [3] | AspH (%): substrate hydroxylation with the compound as cosubstrate [4] | IC50 [5] [µM] | KDM4E (%): substrate demethylation with the compound as cosubstrate [6] | FIH (%): substrate hydroxylation with the compound as cosubstrate ([2]; listed as Entry 22) | IC50 [7] [µM] | AspH (%): substrate hydroxylation with the compound as cosubstrate ([4]; listed as Entry 22) | KDM4E (%): substrate demethylation with the compound as cosubstrate ([6]; listed as Entry 22) [%] | JMJD5-catalyzed RPS6_128–148 hydroxylation, time course ([3]; after 50 min, 10 μM cosubstrate, 0.15 μM JMJD5, 10 μM Fe(II), 2.0 μM RPS6_128–148) [%] | IC50 [8] [µM]
3-ethyl-2OG [2OG derivative 2] | > 50 µM | ~ 2% | < 1% | < 1% | > 20 | < 1% |  |  |  |  |  | 
O=C(O)C(=O)C1CC[C@@H](C(=O)O)C1 (mixture of isomers) [2OG derivative 14, (1R)-3-(carboxycarbonyl)cyclopentane-1-carboxylic acid] | 27.9 ± 3.5 µM |  |  |  |  |  | ~ 2% | > 50 | ~ 15% | < 1 |  | 
4-(2-naphthyl)methyl-2OG [2OG derivative 23] | 6 to 7 µM and ~6.9 µM | < 1% | < 1% | < 1% | > 50 | < 1% |  | 2.5 ± 0.1 |  |  |  | 
CC(CC(=O)C(=O)O)C(=O)O (centres unmarked) [Entry 8] | 6 to 7 µM and ~6.6 µM | < 1% | < 1% | < 1% |  | < 1% |  |  |  |  | ~30 | 
4-propyl-2OG [2OG derivative 11] | > 50 µM | ~ 5% | ~ 10% | < 1% | > 50 | < 1% |  |  |  |  |  | 
3-(4-methoxybenzyl)-2OG [2OG derivative 6] | > 50 µM | < 1% | ~ 10% | < 1% | > 50 | ~ 5% |  |  |  |  |  | 
4-methyl-2OG [2OG derivative 8] |  | ~ 45% | ~ 10% | ~ 10% | > 50 | < 1% |  | > 50 |  |  |  | > 50
O=C(O)C(=O)c1ccc(C(=O)O)s1 [2OG derivative 34] | > 50 µM | < 1% | < 1% | ~ 15% | > 30 | < 1% |  | > 50 |  |  |  | 
O=C(O)C(=O)C1C2C=CC(C2)C1C(=O)O (racemic) [2OG derivative 26] | > 50 µM | < 1% | < 1% | < 1% | > 50 | < 1% |  | > 50 |  |  |  | 
CC1(C)c2ccccc2-c2ccc(CC(CC(=O)O)C(=O)C(=O)O)cc21 (centres unmarked) [Entry 7] | 6 to 7 µM and ~6.1 µM | < 1% | < 1% | < 1% |  | < 1% |  |  |  |  |  | 
